Results reported in patent US20250346593A1, “IMIDAZO(1,2-1)PYRIDINE DERIVATIVES AS RIPK2 INHIBITORS” (Interline Therapeutics, Inc., priority 2022, published 2025).
Read-outs that look alike come from different tables or passages of the source.

Key:
[1] = tested on: NF-κB pathway (SEAP) in THP1-Dual cells; assay: THP-1 Dual cell SEAP assay (L18-MDP stimulated); type: cell-based; details: Homo sapiens, THP1-Dual, read-out: NFkB THP1 IC50
[2] = target: GST-RIPK2 fusion protein (human RIPK2 amino acids 1-310) (Homo sapiens (Human), UniProt O43353); assay: RIPK2 binding competition assay (TR-FRET, Tracer 199)
GST-RIPK2 fusion protein (human RIPK2 amino acids 1-310), sequence (O43353 1-310): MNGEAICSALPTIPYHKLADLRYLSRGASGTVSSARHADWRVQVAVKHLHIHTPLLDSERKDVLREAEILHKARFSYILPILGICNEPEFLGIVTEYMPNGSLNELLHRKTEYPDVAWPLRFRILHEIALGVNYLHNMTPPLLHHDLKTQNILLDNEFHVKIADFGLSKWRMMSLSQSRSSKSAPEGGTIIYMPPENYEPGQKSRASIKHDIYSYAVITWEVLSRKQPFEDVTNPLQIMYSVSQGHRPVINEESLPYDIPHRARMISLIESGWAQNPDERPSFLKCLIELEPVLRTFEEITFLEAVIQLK

[3] = read-out: RIPK2 IC50, RIPK2 binding competition assay

SMILES	IC50 [1]	IC50 [2]	IC50 [2, 3]
COc1cc2ncc(-c3cc(F)nc(N[C@H](C)CO)c3)n2cc1S(=O)(=O)C(C)(C)C [Example 221, (2R)-2-({6-fluoro-4-[7-methoxy-6-(2-methylpropane-2-sulfonyl)imidazo[1,2-a]pyridin-3-yl]pyridin-2-yl}amino)propan-1-ol]	< 50 nM	1 to 2.5 nM	–
COc1cc2ncc(-c3cc(F)nc(N[C@@H](C)CO)c3)n2cc1S(=O)(=O)C(C)(C)C [Example 222, (2S)-2-({6-fluoro-4-[7-methoxy-6-(2-methylpropane-2-sulfonyl)imidazo[1,2-a]pyridin-3-yl]pyridin-2-yl}amino)propan-1-ol]	< 50 nM	1 to 2.5 nM	–
COc1cc2ncc(-c3cc(F)nc(N4CCN(C)CC4)c3)n2cc1S(=O)(=O)C(C)(C)C [Example 223, 1-{6-fluoro-4-[7-methoxy-6-(2-methylpropane-2-sulfonyl)imidazo[1,2-a]pyridin-3-yl]pyridin-2-yl}-4-methylpiperazine]	50 to 250 nM	2.5 to 20 nM	–
COc1cc2ncc(-c3cc(F)nc(NCC(C)(C)O)c3)n2cc1S(=O)(=O)C(C)(C)C [Example 224, 1-({6-fluoro-4-[7-methoxy-6-(2-methylpropane-2-sulfonyl)imidazo[1,2-a]pyridin-3-yl]pyridin-2-yl}amino)-2-methylpropan-2-ol]	< 50 nM	1 to 2.5 nM	–
COc1cc2ncc(-c3cc(F)nc(NC[C@@H](C)O)c3)n2cc1S(=O)(=O)C(C)(C)C [Example 226, (2R)-1-({6-fluoro-4-[7-methoxy-6-(2-methylpropane-2-sulfonyl)imidazo[1,2-a]pyridin-3-yl]pyridin-2-yl}amino)propan-2-ol]	< 50 nM	1 to 2.5 nM	–
COc1cc2ncc(-c3cc(F)nc(NC[C@H](C)O)c3)n2cc1S(=O)(=O)C(C)(C)C [Example 227, (2S)-1-({6-fluoro-4-[7-methoxy-6-(2-methylpropane-2-sulfonyl)imidazo[1,2-a]pyridin-3-yl]pyridin-2-yl}amino)propan-2-ol]	< 50 nM	1 to 2.5 nM	–
COc1cc2ncc(-c3cc(F)nc(NCC(F)(F)CO)c3)n2cc1S(=O)(=O)C(C)(C)C [Example 228, 2,2-difluoro-3-({6-fluoro-4-[7-methoxy-6-(2-methylpropane-2-sulfonyl)imidazo[1,2-a]pyridin-3-yl]pyridin-2-yl}amino)propan-1-ol]	< 50 nM	–	< 1 nM
COc1cc2ncc(-c3cc(F)nc(NC[C@@H](F)CO)c3)n2cc1S(=O)(=O)C(C)(C)C [Example 229, (2R)-2-fluoro-3-({6-fluoro-4-[7-methoxy-6-(2-methylpropane-2-sulfonyl)imidazo[1,2-a]pyridin-3-yl]pyridin-2-yl}amino)propan-1-ol]	< 50 nM	–	< 1 nM
COc1cc2ncc(-c3cc(F)nc(N[C@H](C)CCO)c3)n2cc1S(=O)(=O)C(C)(C)C [Example 230, (3R)-3-({6-fluoro-4-[7-methoxy-6-(2-methylpropane-2-sulfonyl)imidazo[1,2-a]pyridin-3-yl]pyridin-2-yl}amino)butan-1-ol]	250 to 1000 nM	2.5 to 20 nM	–
COc1cc2ncc(-c3cc(F)nc(NC[C@H](F)CO)c3)n2cc1S(=O)(=O)C(C)(C)C [Example 231, (2S)-2-fluoro-3-({6-fluoro-4-[7-methoxy-6-(2-methylpropane-2-sulfonyl)imidazo[1,2-a]pyridin-3-yl]pyridin-2-yl}amino)propan-1-ol]	< 50 nM	–	< 1 nM
COc1cc2ncc(-c3cc(NCCCO)nc(C(F)(F)F)c3)n2cc1S(=O)(=O)C(C)(C)C [Example 232, 3-({4-[7-methoxy-6-(2-methylpropane-2-sulfonyl)imidazo[1,2-a]pyridin-3-yl]-6-(trifluoromethyl)pyridin-2-yl}amino)propan-1-ol]	250 to 1000 nM	2.5 to 20 nM	–
COc1cc2ncc(-c3cc(F)nc(NCCOC(F)F)c3)n2cc1S(=O)(=O)C(C)(C)C [Example 233, 4-(6-(tert-butylsulfonyl)-7-methoxyimidazo[1,2-a]pyridin-3-yl)-N-(2-(difluoromethoxy)ethyl)-6-fluoropyridin-2-amine]	< 50 nM	–	< 1 nM
COc1ccn2c(-c3cc(F)nc(NCCCO)c3)cnc2c1 [Example 234, 3-[(6-fluoro-4-{7-methoxyimidazo[1,2-a]pyridin-3-yl}pyridin-2-yl)amino]propan-1-ol]	50 to 250 nM	2.5 to 20 nM	–
COc1cc2ncc(-c3cc(F)nc(NCCSC)c3)n2cc1S(=O)(=O)C(C)(C)C [Example 235, 4-(6-(tert-butylsulfonyl)-7-methoxyimidazo[1,2-a]pyridin-3-yl)-6-fluoro-N-(2-(methylthio)ethyl) pyridin-2-amine]	< 50 nM	1 to 2.5 nM	–
COc1cc2ncc(-c3cc(F)nc(N[C@@H](C)CCO)c3)n2cc1S(=O)(=O)C(C)(C)C [Example 236, (3S)-3-({6-fluoro-4-[7-methoxy-6-(2-methylpropane-2-sulfonyl)imidazo[1,2-a]pyridin-3-yl]pyridin-2-yl}amino)butan-1-ol]	< 50 nM	–	< 1 nM
COc1cc2ncc(-c3cc(F)nc(NC(C)(C)CO)c3)n2cc1S(=O)(=O)C(C)(C)C [Example 237, 2-({6-fluoro-4-[7-methoxy-6-(2-methylpropane-2-sulfonyl)imidazo[1,2-a]pyridin-3-yl]pyridin-2-yl}amino)-2-methylpropan-1-ol]	50 to 250 nM	2.5 to 20 nM	–

SMILES	IC50 [1]	IC50 [2]	IC50 [2, 3]
CCOc1cc2ncc(-c3cc(F)nc(NCCCO)c3)n2cc1C1(F)CCN(C)CC1 [Example 242, 3-({4-[7-ethoxy-6-(4-fluoro-1-methylpiperidin-4-yl)imidazo[1,2-a]pyridin-3-yl]-6-fluoropyridin-2-yl}amino)propan-1-ol]	< 50 nM	–	< 1 nM
CCOc1cc2ncc(-c3cc(F)nc(NCCCO)c3)n2cc1S(=O)(=O)C(C)C [Example 243, 3-({4-[7-ethoxy-6-(propane-2-sulfonyl)imidazo[1,2-a]pyridin-3-yl]-6-fluoropyridin-2-yl}amino)propan-1-ol]	< 50 nM	–	< 1 nM
COc1cc2ncc(-c3ccnc(NCCCO)c3)n2cc1S(=O)(=O)C(C)(C)C [Example 247, 3-({4-[7-methoxy-6-(2-methylpropane-2-sulfonyl)imidazo[1,2-a]pyridin-3-yl]pyridin-2-yl}amino)propan-1-ol]	< 50 nM	2.5 to 20 nM	–
COc1cc2ncc(-c3cc(F)nc(NCCCO)c3)n2cc1C(=O)N(C)C [Example 248, 3-{2-fluoro-6-[(3-hydroxypropyl)amino]pyridin-4-yl}-7-methoxy-N,N-dimethylimidazo[1,2-a]pyridine-6-carboxamide]	50 to 250 nM	2.5 to 20 nM	–
COc1cc2ncc(-c3cc(F)nc(NCC(C)(C)O)c3)n2cc1C(=O)N(C)C [Example 249, 3-{2-fluoro-6-[(2-hydroxy-2-methylpropyl)amino]pyridin-4-yl}-7-methoxy-N,N-dimethylimidazo[1,2-a]pyridine-6-carboxamide]	250 to 1000 nM	–	> 20 nM
COc1cc2ncc(-c3cc(F)nc(NCCCO)c3)n2cc1CO [Example 250, 3-({6-fluoro-4-[6-(hydroxymethyl)-7-methoxyimidazo[1,2-a]pyridin-3-yl]pyridin-2-yl}amino)propan-1-ol]	50 to 250 nM	2.5 to 20 nM	–
CNC(=O)c1cn2c(-c3cc(F)nc(NCCCO)c3)cnc2cc1OC [Example 251, 3-{2-fluoro-6-[(3-hydroxypropyl)amino]pyridin-4-yl}-7-methoxy-N-methylimidazo[1,2-a]pyridine-6-carboxamide]	< 50 nM	1 to 2.5 nM	–
COc1cc2ncc(-c3cc(NCCCO)cc(F)n3)n2cc1S(=O)(=O)C(C)(C)C [Example 252, 3-((2-(6-(tert-butylsulfonyl)-7-methoxyimidazo[1,2-a]pyridin-3-yl)-6-fluoropyridin-4-yl)amino)propan-1-ol]	250 to 1000 nM	–	> 20 nM
CCCS(=O)(=O)Nc1cc(-c2cnc3cc(OC)c(S(=O)(=O)C(C)(C)C)cn23)cnc1N [Example 253, N-(2-amino-5-(6-(tert-butylsulfonyl)-7-methoxyimidazo[1,2-a]pyridin-3-yl)pyridin-3-yl)propane-1-sulfonamide]	> 1000 nM	–	> 20 nM
CCCS(=O)(=O)Nc1cncc(-c2cnc3cc(OC)c(S(=O)(=O)C(C)(C)C)cn23)c1 [Example 254]	> 1000 nM	–	> 20 nM
CCCS(=O)(=O)Nc1c(F)ccc(-c2cnc3cc(OC)c(S(=O)(=O)C(C)(C)C)cn23)c1F [Example 255, N-(3-(6-(tert-butylsulfonyl)-7-methoxyimidazo[1,2-a]pyridin-3-yl)-2,6-difluorophenyl)propane-1-sulfonamide]	> 1000 nM	> 20 nM	–
CCCS(=O)(=O)N(C)c1cccc(-c2cnc3cc(OC)c(S(=O)(=O)C(C)(C)C)cn23)c1 [Example 256, N-(3-(6-(tert-butylsulfonyl)-7-methoxyimidazo[1,2-a]pyridin-3-yl)phenyl)-N-methylpropane-1-sulfonamide]	> 1000 nM	–	> 20 nM
CCCS(=O)(=O)Nc1c(OC)ccc(-c2cnc3cc(OC)c(S(=O)(=O)C(C)(C)C)cn23)c1F [Example 257, N-(3-(6-(tert-butylsulfonyl)-7-methoxyimidazo[1,2-a]pyridin-3-yl)-2-fluoro-6-methoxyphenyl)propane-1-sulfonamide]	> 1000 nM	–	> 20 nM
CCCS(=O)(=O)Nc1cccc(-c2cnc3cc(OC)c(S(=O)(=O)C(C)(C)C)cn23)c1F [Example 258, N-(3-(6-(tert-butylsulfonyl)-7-methoxyimidazo[1,2-a]pyridin-3-yl)-2-fluorophenyl)propane-1-sulfonamide]	> 1000 nM	–	> 20 nM
CCCS(=O)(=O)Nc1cc(-c2cnc3cc(OC)c(S(=O)(=O)C(C)(C)C)cn23)cc(C#N)c1OC [Example 259, N-(5-(6-(tert-butylsulfonyl)-7-methoxyimidazo[1,2-a]pyridin-3-yl)-3-cyano-2-methoxyphenyl)propane-1-sulfonamide]	250 to 1000 nM	2.5 to 20 nM	–
